Among the test systems are RPMI-8226 leukemia; SF-295 CNS; ACHN renal; COLO 205 colon; TK-10 renal; U251 CNS; SF-268 CNS; CAKI-1 renal; M14 melanoma; NCI-H23 lung.
Common to all, as to test: NCI tumour cell line growth inhibition, 48 h

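Assay format: 96-well plates, 48-hour exposure. TGI denotes the concentration required for complete inhibition of growth.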

In the case of `Cc1c(N2C(=O)/C(=C/c3ccc(Cl)cc3)N=C2c2ccccc2)c(=O)n(-c2ccccc2)n1C`, the TGI in the experiment with RPMI-8226 leukemia was 42.9 µM; in the experiment with SF-295 CNS, more than 100 µM; with ACHN renal it was 60.5 µM; in the experiment with COLO 205 colon it was 30.1 µM; in the experiment with TK-10 renal, 60.3 µM; in the experiment with U251 CNS, 96.3 µM. Also, the TGI in the experiment with SF-268 CNS was more than 100 µM; in the experiment with CAKI-1 renal, more than 100 µM; in the experiment with M14 melanoma it was more than 100 µM; in the experiment on NCI-H23 lung, 78.2 µM.
Consider `Cn1cnc([N+](=O)[O-])c1Sc1nc(N)nc2c1ncn2C1OC(CO)C(O)C1O` (stereo not given), for which the TGI with RPMI-8226 leukemia is more than 95.5 µM; with SF-295 CNS, more than 72.6 µM; in the experiment with ACHN renal, more than 100 µM; in the experiment on COLO 205 colon, 23.8 µM; in the experiment with TK-10 renal it was 87.6 µM; with U251 CNS, more than 100 µM. Further, the TGI in the experiment on SF-268 CNS is more than 100 µM; in the experiment on CAKI-1 renal, more than 100 µM; with M14 melanoma it was more than 100 µM; with NCI-H23 lung, 41.4 µM.
`COc1cc2oc(=O)ccc2cc1C(=O)CC(C)C`: the TGI in the experiment on RPMI-8226 leukemia, with SF-295 CNS, with ACHN renal, with COLO 205 colon, in the experiment on TK-10 renal and in the experiment on U251 CNS was more than 100 µM each time. Further, the TGI in the experiment with SF-268 CNS was more than 100 µM; in the experiment on CAKI-1 renal it was 42.8 µM; in the experiment with M14 melanoma, more than 100 µM; in the experiment with NCI-H23 lung, more than 100 µM.
Consider `C[N+]1(CCC(=O)c2ccco2)CC2CCC(CC2)C1` (stereo not given), for which the TGI with RPMI-8226 leukemia, in the experiment on SF-295 CNS, in the experiment on ACHN renal, in the experiment on COLO 205 colon, in the experiment with TK-10 renal and with U251 CNS was more than 100 µM each time. Also, the TGI with SF-268 CNS, in the experiment on CAKI-1 renal, in the experiment with M14 melanoma and in the experiment with NCI-H23 lung was more than 100 µM throughout.
Regarding `OC(c1ccccc1)(c1ccccc1)c1nccc2ccccc12`, the TGI was more than 100 µM in the experiment with RPMI-8226 leukemia; 36.2 µM in the experiment on SF-295 CNS; more than 100 µM in the experiment on ACHN renal; more than 100 µM with COLO 205 colon; more than 100 µM in the experiment on TK-10 renal; more than 100 µM in the experiment with U251 CNS. The TGI is more than 100 µM in the experiment on SF-268 CNS, more than 100 µM in the experiment with CAKI-1 renal, 49.9 µM in the experiment with M14 melanoma and 89.5 µM in the experiment with NCI-H23 lung.
Consider `O=C(O)c1ccc(C(=O)c2ccccc2C(=O)O)cc1C(=O)O`, for which the TGI with RPMI-8226 leukemia, in the experiment with SF-295 CNS, in the experiment with ACHN renal, in the experiment with COLO 205 colon, with TK-10 renal and in the experiment on U251 CNS was more than 100 µM each time. For the same compound, the TGI in the experiment with SF-268 CNS, in the experiment with CAKI-1 renal, in the experiment on M14 melanoma and with NCI-H23 lung was more than 100 µM throughout.
Regarding `Clc1ccccc1/C=c1\nc(-c2ccccc2)n2c1nc1ccccc12`, the TGI is more than 100 µM in the experiment on RPMI-8226 leukemia; 31.2 µM in the experiment on SF-295 CNS; more than 100 µM in the experiment with ACHN renal; more than 100 µM in the experiment on COLO 205 colon; more than 100 µM in the experiment with TK-10 renal; 61.3 µM in the experiment on U251 CNS. Further, the TGI in the experiment on SF-268 CNS is 54.6 µM; with CAKI-1 renal, more than 100 µM; with M14 melanoma, more than 100 µM; with NCI-H23 lung, 47.8 µM.
On to `COc1ccc(C(=O)C2=NON3OC23C(=O)c2ccc(OC)cc2)cc1` (stereo not given), for which the TGI is more than 50.7 µM in the experiment on RPMI-8226 leukemia; 34.1 µM in the experiment on SF-295 CNS; 31.3 µM in the experiment with ACHN renal; 21.7 µM in the experiment with COLO 205 colon; 34.1 µM in the experiment with TK-10 renal; 30.3 µM in the experiment with U251 CNS. The TGI is 40.2 µM in the experiment on SF-268 CNS, 6.79 µM with CAKI-1 renal, 31 µM with M14 melanoma and 17.8 µM in the experiment on NCI-H23 lung.
As for `Nc1c(C(=O)O)nnc2cc(Cl)c(Cl)cc12`, the TGI with RPMI-8226 leukemia, with SF-295 CNS, in the experiment on ACHN renal, with COLO 205 colon, in the experiment with TK-10 renal and in the experiment on U251 CNS was more than 100 µM throughout. Also, the TGI in the experiment on SF-268 CNS, with CAKI-1 renal, in the experiment with M14 melanoma and in the experiment on NCI-H23 lung was more than 100 µM in each case.

The values above are taken from PubChem BioAssay (NCI).
